# Reference: US10501412B2, “Conjugates of cell binding molecules with cytotoxic agents” (HANGZHOU DAC BIOTECH CO., LTD., priority 2012, dated 2019)
# Settings: generated by hydrolysis of Phe and Tyr in the animal blood circulation
substance,measurement,value
Mep-Ile-Tuv [Mep-Ile-Tuv moiety],fold less potency than tubulysin A and D,over 200 fold
